Experimental data: patent US10155990B2, “Method for predicting therapeutic efficacy of PI3K/AKT/mTOR inhibitor on basis of PHLDA1 or PIK3C2B expression” (Taiho Pharmaceutical Co., Ltd., priority 2013, dated 2018)

What was measured:
Type in all cases: cell-based
[1] = tested on: panel of 240 cell lines composed of various cancers; experiment: GI50 versus PHLDA1/PIK3C2B expression in a panel of 240 cell lines (OncoPanel, Ricerca Biosciences); details: panel of 240 cell lines of various cancers
Source text: It was also examined whether the expression level of PHLDA1 or PIK3C2B has a correlation with the sensitivity to PI3K/AKT/mTOR inhibitors in a panel of 240 cell lines (OncoPanel™, Ricerca Biosciences) composed of various cancers such as lung cancer, kidney cancer, liver cancer, pancreatic cancer, large bowel cancer, bladder cancer, breast cancer, head and neck cancer, prostate cancer, skin cancer, blood cancer, and malignant lymphoma.

[2] = tested on: 37 cell lines from human breast cancer; experiment: Cytotoxicity assay (CellTiter-Glo, GI50) in 37 human breast cancer cell lines, related to PHLDA1/PIK3C2B expression, PIK3CA mutation, PTEN deletion
Protocol: A cytotoxicity assay was conducted as described below using 37 cell lines from human breast cancer (AU565, BT20, BT474, BT549, CAMA-1, DU4475, HCC1187, HCC1419, HCC1428, HCC1500, HCC1569, HCC1599, HCC1806, HCC1937, HCC1954, HCC202, HCC2218, HCC38, HCC70, MDA-MB-157, MDA-MB-175, MDA-MB-231, MDA-MB-361, MDA-MB-415, MDA-MB-436, MDA-MB-453, MDA-MB-468, UACC-812, and UACC-893 (all obtained from American Type Culture Collection (ATCC); MCF-7, SK-BR-3, T47D, and ZR-75-1 (all obtained from Sumitomo Dainippon Pharma Co., Ltd.); KPL-1, KPL-3C, and KPL-4 (provided by Dr. Kurebayashi at Kawasaki Medical School)). Each cell line was seeded into a 96-well flat-bottom microplate in an amount of 150 μL, and cultured in an incubator containing 5% carbon dioxide gas at 37° C. for one day. PI3K/AKT/mTOR inhibitors (AKT inhibitor: Compound-I, MK-2206, PI3K-mTOR dual inhibitor: BEZ235, PI3K inhibitor: GDC-0941, mTOR inhibitor: sirolimus) diluted stepwise with dimethylsulfoxide, paclitaxel diluted stepwise with dimethylsulfoxide, and dimethylsulfoxide were individually added to respective media for the cell lines. 50 μL of each of the media was added to the wells of the aforementioned 96-well flat-bottom microplate so that the final concentration of each drug became 10,000, 3,000, 1,000, 300, 100, 30, 3, and 1 nM. A separately prepared 96-well flat-bottom microplate in which each cell line was cultured for one day was allowed to stand at room temperature for 30 minutes, and 50 μL of the supernatant was removed from each well to leave 100 μL of the cell culture solution. […] The microplate was allowed to stand in a dark place for 10 minutes, and then the luminescence intensity of live cells of each well to which the drug were added was measured using a microplate reader (PerkinElmer, ARVOsx). […] The microplate was allowed to stand in a dark place for 10 minutes, and then the luminescence intensity of live cells of each well was measured using a microplate reader. […]
Subsequently, the expression level of PHLDA1 and PIK3C2B in the 37 cell lines from human breast cancer was measured. […]

[3] = tested on: human ovarian cancer cell line OVCAR-3; experiment: Cytotoxicity after PIK3C2B gene knockdown, OVCAR-3; details: relative cell count after three days, FIG. 3
[4] = tested on: human breast cancer cell line HCC1187; experiment: Cytotoxicity after PIK3C2B gene knockdown, HCC1187; details: relative cell count after three days, FIG. 3
[5] = 37 human breast cancer cell lines, 3 days drug exposure, FIG. 1

Compound	Correlation between logarithm of GI50 and logarithm of expression level of PHLDA1 [1]	Correlation between logarithm of GI50 and logarithm of expression level of PIK3C2B [1]	Correlation of PTEN deletion with sensitivity (GI50) ([2]; 36 cell lines, PTEN deletion in 8 cell lines, FIG. 4)	Change in sensitivity to drug caused by PIK3C2B gene knockdown [3]	Change in sensitivity to drug caused by PIK3C2B gene knockdown [4]	Pearson correlation between logarithm of GI50 and logarithm of expression level of PHLDA1 [2, 5]	Pearson correlation between logarithm of GI50 and logarithm of expression level of PIK3C2B [2, 5]
Cn1c(=O)n(-c2ccc(C(C)(C)C#N)cc2)c2c3cc(-c4cnc5ccccc5c4)ccc3ncc21 [BEZ235, dactolisib]	significant correlation	significant correlation	–	–	–	–	–
CC1(O)CC(N)(c2ccc(-c3nc4n(c3-c3ccccc3)COc3ccncc3-4)cc2)C1 (stereo not drawn) [Compound-I, trans-3-amino-1-methyl-3-(4-(3-phenyl-5H-imidazo[1,2-c]pyrido[3,4-e][1,3]oxazin-2-yl)phenyl)cyclobutanol]	significant correlation	significant correlation	did not show a correlation	decrease in sensitivity	decrease in sensitivity	–	–
CS(=O)(=O)N1CCN(Cc2cc3nc(-c4cccc5[nH]ncc45)nc(N4CCOCC4)c3s2)CC1 [GDC-0941, pictilisib]	significant correlation	significant correlation	–	decrease in sensitivity	decrease in sensitivity	–	–
NC1(c2ccc(-c3nc4ccn5c(=O)[nH]nc5c4cc3-c3ccccc3)cc2)CCC1 [MK-2206]	significant correlation	significant correlation	–	–	–	–	–
CC(=O)O[C@H]1C(=O)[C@@]2(C)[C@H]([C@H](OC(=O)c3ccccc3)[C@]3(O)C[C@H](OC(=O)[C@H](O)[C@@H](NC(=O)c4ccccc4)c4ccccc4)C(C)=C1C3(C)C)[C@]1(OC(C)=O)CO[C@@H]1C[C@@H]2O [paclitaxel]	–	–	–	almost no change	almost no change	did not show a correlation	did not show a correlation
